# Measurements from ChEMBL document CHEMBL3244122, “Symbiotic approach to drug design: antihypertensive beta-adrenergic blocking agents” (J Med Chem, 1979).
# Columns and labels:
# Rattus norvegicus [1] = assay: Antihypertensive activity in spontaneously hypertensive Wistar-Okamoto rat assessed as duration of action at 20 mg/kg, ip; assay type: functional; conditions: route intraperitoneal
# Rattus norvegicus [2] = assay: Antihypertensive activity in spontaneously hypertensive Wistar-Okamoto rat assessed as maximal fall in mean arterial pressure at 20 mg/kg, ip; assay type: functional, Artery; conditions: route intraperitoneal
# Canis familiaris [3] = assay: Vasodilatory activity in anesthetized dog assessed as increase in iliac blood flow […] measured after 320 ug/kg, iv beta-adrenergic receptor blocker timolol administration; assay type: functional, Canis lupus familiaris, Artery
# Canis familiaris [4] = assay: Vasodilatory activity in anesthetized dog assessed as increase in iliac blood flow […] ia; assay type: functional, Canis lupus familiaris, Artery
# Rattus norvegicus [5] = assay: Antihypertensive activity in spontaneously hypertensive Wistar-Okamoto rat assessed as maximal fall in mean arterial pressure at 0.312 mg/kg, po; assay type: functional, Artery
# Rattus norvegicus [6] = assay: Antihypertensive activity in spontaneously hypertensive Wistar-Okamoto rat assessed as maximal fall in mean arterial pressure at 1.25 mg/kg, po; assay type: functional, Artery
# Canis familiaris [7] = assay: In vivo beta-adrenergic receptor blockade in iv dosed anesthetized dog assessed as inhibition of isoproterenol-induced tachycardia; assay type: functional; conditions: Canis lupus familiaris
# Rattus norvegicus [8] = assay: Antihypertensive activity in spontaneously hypertensive Wistar-Okamoto rat assessed as maximal fall in mean arterial pressure at 0.625 mg/kg, po; assay type: functional, Artery
# Canis familiaris [9] = assay: In vivo beta-adrenergic receptor blockade in iv dosed anesthetized dog assessed as inhibition of isoproterenol-induced hypotension; assay type: functional; conditions: Canis lupus familiaris
# Rattus norvegicus [10] = assay: Antihypertensive activity in spontaneously hypertensive Wistar-Okamoto rat assessed as duration of action at 0.312 mg/kg, po; assay type: functional
# Rattus norvegicus [11] = assay: Antihypertensive activity in po dosed spontaneously hypertensive Wistar-Okamoto rat assessed as maximal fall in mean arterial pressure; assay type: functional, organism-based; conditions: Artery
# Oryctolagus cuniculus = assay: Toxicity in rabbit assessed as teratogenicity measured after high drug dose administration; assay type: organism-based; conditions: in vivo
# Rattus norvegicus [12] = assay: Antihypertensive activity in spontaneously hypertensive Wistar-Okamoto rat assessed as maximal fall in mean arterial pressure at 8 mg/kg, po; assay type: functional, Artery
# Rattus norvegicus [13] = assay: Antihypertensive activity in spontaneously hypertensive Wistar-Okamoto rat assessed as maximal fall in mean arterial pressure at 2 mg/kg, po; assay type: functional, Artery
# Canis familiaris [14] = assay: Vasodilatory activity in anesthetized dog assessed as increase in iliac blood flow at 800 mg, ia measured after 800 ug/kg, iv beta-adrenergic receptor blocker timolol administration; assay type: functional, Canis lupus familiaris, Artery
# Rattus norvegicus [15] = assay: Antihypertensive activity in spontaneously hypertensive Wistar-Okamoto rat assessed as duration of action at 2 mg/kg, po; assay type: functional
# Rattus norvegicus [16] = assay: Antihypertensive activity in spontaneously hypertensive Wistar-Okamoto rat assessed as maximal fall in mean arterial pressure at 1 mg/kg, po; assay type: functional, Artery
# Rattus norvegicus [17] = assay: Antihypertensive activity in spontaneously hypertensive Wistar-Okamoto rat assessed as duration of action at 1 mg/kg, po; assay type: functional
# Canis familiaris [18] = assay: Vasodilatory activity in anesthetized dog assessed as increase in iliac blood flow at 800 mg, ia measured after 320 ug/kg, iv beta-adrenergic receptor blocker timolol administration; assay type: functional, Canis lupus familiaris, Artery
# Rattus norvegicus [19] = assay: Antihypertensive activity in spontaneously hypertensive Wistar-Okamoto rat assessed as duration of action at 8 mg/kg, po; assay type: functional
# Canis familiaris [20] = assay: Vasodilatory activity in anesthetized dog assessed as increase in iliac blood flow at 800 mg, ia; assay type: functional, Canis lupus familiaris, Artery
# Rattus norvegicus [21] = assay: Antihypertensive activity in spontaneously hypertensive Wistar-Okamoto rat assessed as duration of action at 1.25 mg/kg, po; assay type: functional
# Canis familiaris [22] = assay: Vasodilatory activity in anesthetized dog assessed as increase in iliac blood flow […] measured after 2000 ug/kg, iv beta-adrenergic receptor blocker timolol administration; assay type: functional, Canis lupus familiaris, Artery
# Rattus norvegicus [23] = assay: Antihypertensive activity in spontaneously hypertensive Wistar-Okamoto rat assessed as maximal fall in mean arterial pressure at 0.078 mg/kg, po; assay type: functional, Artery
# Canis familiaris [24] = assay: Vasodilatory activity in anesthetized dog assessed as increase in iliac blood flow at 250 mg, ia measured after 800 ug/kg, iv beta-adrenergic receptor blocker timolol administration; assay type: functional, Canis lupus familiaris, Artery
# Canis familiaris [25] = assay: Vasodilatory activity in anesthetized dog assessed as increase in iliac blood flow at 64 mg, ia measured after 800 ug/kg, iv beta-adrenergic receptor blocker timolol administration; assay type: functional, Canis lupus familiaris, Artery
# Canis familiaris [26] = assay: Vasodilatory activity in anesthetized dog assessed as increase in iliac blood flow […] measured after 800 ug/kg, iv beta-adrenergic receptor blocker timolol administration; assay type: functional, Canis lupus familiaris, Artery
# Rattus norvegicus [27] = assay: Antihypertensive activity in spontaneously hypertensive Wistar-Okamoto rat assessed as duration of action at 20 mg/kg, po; assay type: functional
# Rattus norvegicus [28] = assay: Antihypertensive activity in spontaneously hypertensive Wistar-Okamoto rat assessed as maximal fall in mean arterial pressure at 20 mg/kg, po; assay type: functional, Artery
# Rattus norvegicus [29] = assay: Antihypertensive activity in spontaneously hypertensive Wistar-Okamoto rat assessed as duration of action at 5 mg/kg, po; assay type: functional
# Rattus norvegicus [30] = assay: Antihypertensive activity in spontaneously hypertensive Wistar-Okamoto rat assessed as maximal fall in mean arterial pressure at 5 mg/kg, po; assay type: functional, Artery
# Canis familiaris [31] = assay: Vasodilatory activity in anesthetized dog assessed as increase in iliac blood flow at 64 mg, ia measured after 2000 ug/kg, iv beta-adrenergic receptor blocker timolol administration; assay type: functional, Canis lupus familiaris, Artery
# Canis familiaris [32] = assay: Vasodilatory activity in anesthetized dog assessed as increase in iliac blood flow at 250 mg, ia measured after 2000 ug/kg, iv beta-adrenergic receptor blocker timolol administration; assay type: functional, Canis lupus familiaris, Artery
# Rattus norvegicus [33] = assay: Antihypertensive activity in spontaneously hypertensive Wistar-Okamoto rat assessed as maximal fall in mean arterial pressure at 5 mg/kg, ip; assay type: functional, Artery; conditions: route intraperitoneal
# Rattus norvegicus [34] = assay: Antihypertensive activity in spontaneously hypertensive Wistar-Okamoto rat assessed as duration of action at 5 mg/kg, ip; assay type: functional; conditions: route intraperitoneal
SMILES,Activity (Canis familiaris [4]) [mL/min],Activity (Rattus norvegicus [6]) [mmHg],ED50 (Canis familiaris [7]) [mg/kg],ED50 (Canis familiaris [9]) [mg/kg],Activity (Canis familiaris [22]) [mL/min],Time (Rattus norvegicus [27]) [h],Activity (Rattus norvegicus [28]) [mmHg],Activity (Rattus norvegicus [30]) [mmHg],also measured
CC(C)(C)NCC(O)COc1ccc(-c2ncc[nH]2)cc1 (stereo unspecified),36,–,–,–,–,–,–,–,Time (Rattus norvegicus [1]): 1 h; Activity (Rattus norvegicus [2]): 33 mmHg; Activity (Canis familiaris [3]): 31 mL/min
CC(C)(C)NC[C@H](O)COc1nsnc1N1CCOCC1 [TIMOLOL],–,-1,0.0024,0.0013,–,–,–,–,Activity (Rattus norvegicus [5]): 32 mmHg; Activity (Rattus norvegicus [8]): 0 mmHg; Time (Rattus norvegicus [10]): 8 h
CC(C)(C)NCC(O)COc1ncccc1C#N (stereo unspecified),–,–,–,–,–,–,–,–,inhibition (Rattus norvegicus [11]): Dose-dependent effect; Activity (Oryctolagus cuniculus): Toxic
Cc1cnc(-c2ccc(OC[C@@H](O)CNC(C)(C)C)cc2)[nH]1,–,–,0.03,> 1,–,–,–,–,–
FC(F)(F)c1cnc(-c2cccnc2)[nH]1,–,–,–,–,–,–,–,–,Activity (Rattus norvegicus [12]): 48 mmHg; Activity (Rattus norvegicus [13]): 39 mmHg; Activity (Canis familiaris [14]): 76 mL/min; Time (Rattus norvegicus [15]): 6 h; Activity (Rattus norvegicus [16]): 21 mmHg; Time (Rattus norvegicus [17]): 2 h; Activity (Canis familiaris [18]): 99 mL/min; Time (Rattus norvegicus [19]): >6 h; Activity (Canis familiaris [20]): 93 mL/min
CC(C)(C)NC[C@H](O)COc1ncccc1C#N.Cl,98,47,0.0015,0.0052,90,–,–,–,Activity (Rattus norvegicus [5]): 30 mmHg; Time (Rattus norvegicus [10]): 1 h; Time (Rattus norvegicus [21]): >12 h; Activity (Rattus norvegicus [23]): 19 mmHg; Activity (Canis familiaris [24]): 62 mL/min; Activity (Canis familiaris [25]): 38 mL/min
CC(C)(C)NCC(O)COc1ccc(-c2ncc(C(F)(F)F)[nH]2)cn1 (stereo unspecified),103,–,0.0025,0.058,–,>7,–,–,Activity (Canis familiaris [26]): 38 mL/min; Activity (Rattus norvegicus [2]): 40 mmHg
CC(C)(C)NCC(O)COc1cc(C#N)ccn1 (stereo unspecified),35,15,0.03,> 0.03,–,4,55,30,Activity (Canis familiaris [26]): 18 mL/min; Time (Rattus norvegicus [29]): 2 h
CC(C)(C)NCC(O)COc1ncccc1S(C)(=O)=O (stereo unspecified),10,–,–,–,–,–,13,12,Activity (Canis familiaris [26]): 8 mL/min
CC(C)NCC(O)COc1cccc2ccccc12 (stereo unspecified) [PROPRANOLOL],–,12,0.051,0.019,–,12,14,7,Time (Rattus norvegicus [29]): <8 h; Time (Rattus norvegicus [21]): 8 h
Cc1c[nH]c(-c2ccc(OCC(O)CNC(C)(C)C)cc2)n1 (stereo unspecified),60,24,–,–,–,8,41,19,Activity (Canis familiaris [3]): 33 mL/min; Time (Rattus norvegicus [29]): <8 h; Time (Rattus norvegicus [21]): <6 h
CC(C)(C)NC[C@H](O)COc1ccc(-c2ncc[nH]2)cc1,–,–,0.067,> 1,–,–,–,–,–
CC(C)(C)NC[C@@H](O)COc1ncccc1C#N.Cl,–,22,0.1,0.1,82,4,40,27,Activity (Canis familiaris [31]): 13 mL/min; Time (Rattus norvegicus [29]): 1 h; Activity (Canis familiaris [32]): 22 mL/min
CC(C)(C)NCC(O)COc1ccccn1 (stereo unspecified),–,–,0.01,0.07,30,–,33,10,–
CC(C)(C)NCC(O)COc1ccc(-c2ncc(-c3ccccc3)[nH]2)cc1 (stereo unspecified),46,20,0.038,0.083,42,>24,54,30,Time (Rattus norvegicus [29]): 4 h
CC(C)(C)NCC(O)COc1ccc(C#N)cn1 (stereo unspecified),-13,–,–,–,19,–,15,–,Activity (Canis familiaris [26]): -1 mL/min
Cc1cc(OCC(O)CNC(C)(C)C)cc(C)c1-c1ncc(C(F)(F)F)[nH]1 (stereo unspecified),7,–,–,–,–,18,30,19,Time (Rattus norvegicus [29]): 4 h
NNc1nncc2ccccc12 [HYDRALAZINE],66,–,–,–,–,–,–,–,Activity (Rattus norvegicus [13]): 40 mmHg; Time (Rattus norvegicus [15]): >7 h; Activity (Rattus norvegicus [16]): 30 mmHg; Time (Rattus norvegicus [17]): 6 h
CN(C)CCOc1ncccc1C#N,100,–,–,–,72,–,–,–,Time (Rattus norvegicus [1]): 1 h; Activity (Rattus norvegicus [2]): 49 mmHg
CC(C)(C)NCC(O)COc1ncccc1C(F)(F)F (stereo unspecified),100,28,< 0.001,< 0.001,145,18,36,–,Activity (Rattus norvegicus [5]): 15 mmHg; Time (Rattus norvegicus [21]): 4 h; Activity (Canis familiaris [24]): 60 mL/min; Activity (Canis familiaris [25]): 41 mL/min
Cc1ccc(C#N)c(OCC(O)CNC(C)(C)C)n1 (stereo unspecified),70,–,< 0.01,< 0.01,43,–,–,5,–
CC(C)(C)NCC(O)COc1ccc(-c2nc(C(F)(F)F)c[nH]2)cc1 (stereo unspecified),79,36,0.009,0.036,15,–,–,49,Activity (Rattus norvegicus [5]): 21 mmHg; Time (Rattus norvegicus [10]): 7 h; Time (Rattus norvegicus [29]): 18 h; Time (Rattus norvegicus [21]): 18 h
Cc1cc(C)c(C#N)c(OCC(O)CNC(C)(C)C)n1 (stereo unspecified),33,–,0.0015,0.0026,3,8,21,16,–
CC(C)NCC(O)COc1ncccc1C#N (stereo unspecified),59,–,0.005,0.03,48,4,40,–,Time (Rattus norvegicus [1]): 8 h; Activity (Rattus norvegicus [33]): 26 mmHg; Activity (Rattus norvegicus [2]): 59 mmHg; Time (Rattus norvegicus [34]): 2 h
